Test results: patent US20110045101A1, “FUNGICIDAL SUBSTITUTED AZOLES” (E.I. Du Pont De Nemours and Company, priority 2009, published 2011)
Marks after values point to notes of the source that are not given here.

Experiments:
Format in all cases: in vivo
Conditions in all cases: 100 = 100% disease control
[1] = system: Botrytis cinerea; experiment: Test C: tomato Botrytis on tomato seedlings, sprayed the day before inoculation, visual disease rating
Procedure, shortened: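 Rate: 200 ppm sprayed to run-off, corresponding to 500 g/ha; flagged values used 40 ppm. Vehicle was aqueous acetone (1:1) plus 250 ppm surfactant, compounds predissolved in acetone at 3% of volume. Plants were tomato seedlings.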

[2] = system: Alternaria solani; experiment: Test D: tomato early blight, sprayed the day before inoculation, visual disease rating
Procedure, shortened: (§1)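 Plants received a run-off spray at 200 ppm (equivalent to 500 g/ha) or, for starred values, 40 ppm. Formulation used acetone at 3% of volume in a 50/50 acetone/water mix carrying 250 ppm Trem® 014.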

[3] = system: Septoria nodorum; experiment: Test F: wheat glume blotch on wheat seedlings, sprayed the day before inoculation, visual disease rating
Procedure, shortened: as §1

[4] = system: Septoria tritici; experiment: Test G: wheat leaf blotch on wheat seedlings, sprayed the day before inoculation, visual disease rating
Procedure, shortened: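 Visual disease ratings taken 19 days after transfer to a 20° C growth chamber, following 48 h in saturated atmosphere at 24° C. Seedlings had been sprayed to run-off one day before spore inoculation. Dose 200 ppm, or 40 ppm where starred.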

[5] = system: Puccinia recondita f. sp. tritici; experiment: Test H: wheat leaf rust, test suspension sprayed after inoculation of wheat seedlings, visual disease rating
Procedure, shortened: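 Wheat seedlings inoculated with P. recondita spores, held 24 h saturated at 20 °C, then 2 days in growth chamber at 20 °C; compound suspension (acetone/water with Trem 014) sprayed to run-off afterwards. Rated visually; 200 ppm (≈500 g/ha) unless marked *, which denotes 40 ppm.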

[6] = system: Puccinia recondita f. sp. tritici; experiment: Test I: wheat leaf rust on wheat seedlings, sprayed the day before inoculation, visual disease rating
Procedure, shortened: as §1

[7] = system: Erysiphe graminis f. sp. tritici; experiment: Test J: wheat powdery mildew on wheat seedlings, sprayed the day before inoculation, visual disease rating
Procedure, shortened: as §1

[8] = 200 ppm, 0 = no control relative to controls

Row | SMILES | Test C disease control rating [1, 8] | Test D disease control rating [2, 8] | Test F disease control rating [3, 8] | Test G disease control rating [4, 8] | Test H disease control rating [5, 8] | Test I disease control rating [6, 8] | Test J disease control rating [7, 8] | Test C disease control rating ([1]; 40 ppm (marked *)) | Test D disease control rating ([2]; 40 ppm (marked *)) | Test F disease control rating ([3]; 40 ppm (marked *)) | Test G disease control rating ([4]; 40 ppm (marked *)) | Test H disease control rating ([5]; 40 ppm (marked *)) | Test I disease control rating ([6]; 40 ppm (marked *)) | Test J disease control rating ([7]; 40 ppm (marked *))
1 | COc1cc(F)c(-c2c(Br)nnn2-c2ccc(Cl)cc2)c(F)c1 [compound 627] | 99% | 99% | 0% | 99% | 40% | 95% | 98% | – | – | – | – | – | – | –
2 | COc1cc(F)c(-c2c(C)nnn2-c2ccc(Cl)cc2)c(F)c1 [compound 628] | 99% | 100% | 0% | 100% | 0% | 99% | 99% | – | – | – | – | – | – | –
3 | Cc1ccc(-n2c(C)nc(Cl)c2-c2c(F)cc(OC(F)F)cc2F)cc1 [compound 631] | 99% | 99% | 0% | 100% | 40% | 99% | 100% | – | – | – | – | – | – | –
4 | COC(=O)c1ccc(-n2cnc(N(C)C)c2-c2c(F)cccc2F)cc1 [compound 633] | – | – | – | – | – | – | – | 0* % | 0* % | 0* % | 0* % | 0* % | 44* % | 0* %
5 | CN(C)c1ccc(-n2cnc(N(C)C)c2-c2c(F)cccc2F)cc1 [compound 634] | – | – | – | – | – | – | – | 0* % | 0* % | 0* % | 0* % | 0* % | 0* % | 0* %
6 | CN(C)c1ccc(-n2cnc(Cl)c2-c2c(F)cccc2F)cc1 [compound 635] | – | – | – | – | – | – | – | 99* % | 0* % | 0* % | 81* % | 0* % | 39* % | 0* %
7 | CC(=O)Nc1ccc(-n2c(Cl)nc(Cl)c2-c2c(F)cccc2F)cc1Cl [compound 636] | – | – | – | – | – | – | – | 90* % | 24* % | 0* % | 95* % | 0* % | 52* % | 0* %
8 | CC(=O)Nc1ccc(-n2c(Cl)nc(Cl)c2-c2c(F)cccc2F)cc1 [compound 637] | – | – | – | – | – | – | – | 97* % | 0* % | 0* % | 92* % | 0* % | 65* % | 0* %
9 | COc1cc(F)c(-c2c(Cl)nc(N)n2-c2ccc(Cl)cc2)c(F)c1 [compound 638] | 99% | 99% | 55% | 99% | 0% | 95% | 56% | – | – | – | – | – | – | –
10 | COc1cc(OC)c(Cl)c(-n2cnc(Br)c2-c2ccc(Cl)cc2F)c1 [compound 641] | 95% | 96% | 94% | 99% | 100% | 100% | 83% | – | – | – | – | – | – | –
11 | COc1cc(OC)c(Br)c(-n2cnc(Br)c2-c2ccc(Cl)cc2F)c1Cl [compound 642] | – | – | – | – | – | – | – | 97* % | 0* % | 0* % | 94* % | 0* % | 98* % | 56* %
12 | CC(=O)Nc1ccc(-n2c(Br)nc(Cl)c2-c2c(F)cccc2F)cc1 [compound 643] | – | – | – | – | – | – | – | 0* % | 0* % | 0* % | 87* % | 0* % | 52* % | 0* %
13 | COc1cc(F)c(-c2c(Cl)nc(Br)n2-c2ccc(OC)c(Cl)c2)c(F)c1 [compound 645] | – | – | – | – | – | – | – | 99* % | 17* % | 0* % | 95* % | 0* % | 83* % | 35* %
14 | COc1cc(F)c(-c2c(Cl)nc(Cl)n2-c2ccc(OC)c(Cl)c2)c(F)c1 [compound 646] | – | – | – | – | – | – | – | 93* % | 47* % | 0* % | 97* % | 0* % | 92* % | 35* %
15 | COc1cc(F)c(-c2c(Cl)nc(Cl)n2-c2ccc(C)c(I)c2)c(F)c1 [compound 647] | – | – | – | 95% | – | – | – | 0* % | 0* % | 0* % | – | 0* % | 0* % | 69* %
16 | COC(=O)c1ccc(-n2c(Cl)nc(Cl)c2-c2c(F)cccc2F)cc1 [compound 649] | – | – | – | – | – | – | – | 0* % | 0* % | 0* % | 97* % | 0* % | 61* % | 0* %
17 | CN(C)c1ccc(-n2cnc(Cl)c2-c2c(F)cccc2F)cc1Cl [compound 650] | – | – | – | – | – | – | – | 0* % | 0* % | 0* % | 0* % | 9* % | 0* % | 0* %
18 | COc1cc(OC)cc(-c2c(Br)nc(C)n2-c2c(F)cc([N+](=O)[O-])cc2F)c1 [compound 651] | 97% | 0% | 60% | 97% | 0% | 95% | 79% | – | – | – | – | – | – | –
19 | CN(C)c1c(Cl)cc(-n2cnc(Cl)c2-c2c(F)cccc2F)cc1Cl [compound 652] | – | – | – | – | – | – | – | 0* % | 0* % | 0* % | 0* % | 6* % | 0* % | 0* %
20 | COc1cc(F)c(-c2c(Cl)nc(Cl)n2-c2ccc(C)cc2F)c(F)c1 [compound 653] | – | – | – | – | – | – | – | 99* % | 99* % | 78* % | 100* % | 99* % | 100* % | 99* %
21 | COc1cc(F)c(-c2c(Cl)nc(Br)n2-c2ccc(C)cc2F)c(F)c1 [compound 654] | – | – | – | – | – | – | – | 100* % | 99* % | 91* % | 98* % | 100* % | 99* % | 100* %
22 | COc1cc(F)c(-c2c(Cl)nc(Br)n2-c2ccc(C)c(I)c2)c(F)c1 [compound 655] | – | – | – | – | – | – | – | 8* % | 0* % | 0* % | 97* % | 49* % | 9* % | 0* %
23 | N#Cc1ccc(F)c(-c2c(Cl)ncn2-c2ccc(F)cc2)c1F [compound 656] | 100% | 100% | 20% | 99% | 9% | 100% | 100% | – | – | – | – | – | – | –
24 | COc1cc(OC)cc(-n2c(Br)nc(C)c2-c2c(F)cc(OC)cc2F)c1 [compound 657] | – | – | – | – | – | – | – | 99* % | 99* % | 99* % | 99* % | 100* % | 100* % | 96* %
25 | CCOc1ccc(F)c(-c2c(Cl)ncn2-c2ccc(Cl)cc2)c1F [compound 660] | 100% | 98% | 82% | 100% | 9% | 92% | 100% | – | – | – | – | – | – | –
